pKi: −log10 of the molar value.

The target in one assay is human A2A receptor (Homo sapiens (Human), UniProt P29274). The experiment in a line: A2A competition binding assay using Scintillation Proximity technology. The conditions noted are these: 0.25 μg of membranes from HEK293 cells expressing the human A2a receptor per well; 0.5 nM tritiated radioligand; Cheng-Prusoff. On the procedure: Binding affinities of compounds of the invention for the human A2A receptor were determined in a competition binding assay using Scintillation Proximity technology. Thus, 1^μg (^ denotes 1 μg of membrane/well), or preferably 0.25 μg of membranes from HEK293 cells expressing the human A2a receptor were incubated with a compound of the invention at concentrations ranging from 3000 nM to 0.15 nM in a reaction mixture containing also 0.5 nM of a tritiated form of 5-amino-7-[2-phenethyl]-2-(furan-2-yl)-7H-pyrazolo[4,3-e][1,2,4]triazolo[1,5-c]pyrimidine (the tritiated compound) and 25 μg of wheat germ agglutin-coated yttrium silicate SPA beads for one hour at room temperature with agitation. The beads were then allowed to settle to the bottom of the wells for 1 hr, after which the membrane-associated radioactivity was determined by scintillation counting in a TopCount microplate reader. Ki values were determined using the Cheng-Prusoff equation.
human A2A receptor, sequence (P29274 whole entry): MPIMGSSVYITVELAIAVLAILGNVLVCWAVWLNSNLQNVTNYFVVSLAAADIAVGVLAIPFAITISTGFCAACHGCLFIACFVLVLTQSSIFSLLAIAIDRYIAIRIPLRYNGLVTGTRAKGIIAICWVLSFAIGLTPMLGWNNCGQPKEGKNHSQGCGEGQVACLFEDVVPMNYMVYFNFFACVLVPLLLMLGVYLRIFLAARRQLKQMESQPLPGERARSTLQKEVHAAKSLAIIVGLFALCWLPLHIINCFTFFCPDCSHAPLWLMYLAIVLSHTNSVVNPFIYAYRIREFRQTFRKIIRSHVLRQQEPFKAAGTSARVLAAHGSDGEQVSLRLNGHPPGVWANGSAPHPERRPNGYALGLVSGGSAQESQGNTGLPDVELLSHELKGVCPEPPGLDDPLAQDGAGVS
HEK293 cells expressing the human, rat, dog or monkey adenosine 2a receptor (Purchased from Perkin-Elmer # RBHA2AM400UA).
The Tritiated compound was prepared in-house by MRL Radiochemistry according to published methods.
Wheat germ agglutinin-coated yttrium silicate SPA beads (GE Healthcare #RPNQ0023). Dilute to 25 mg/mL in assay buffer.
Assay Buffer was prepared in house: Dulbecco's calcium and magnesium free phosphate buffered saline+10 mM MgCl2
Adenosine deaminase from calf intestine, 10 mg/2 mL (Roche #10 102 105 001).
A2A antagonist standard (9-chloro-1-(2-furanyl)-[1,2,4]triazolo[1,5-c]quinazolin-5-amine from Tocris Bioscience)
Make eight 1:3 serial dilutions in 100% DMSO from a 3 mM compound stock
Transfer 50 nL of compound into a 384-well OptiPlate (Perkin Elmer).
Typically, final concentrations of compound used in the assay ranged from 3000 nM to 0.152 nM.
Dilute a solution of the Tritiated compound to 1.25 nM in assay buffer. This a 2.5× solution. The final concentration in the assay is 0.5 nM. Calculate the concentration by counting two 5 μL aliquots.
Use *1 ug or preferrably 0.25 ug of membrane/well. Dilute membranes to 9.7 μg/ml in assay buffer. Treat with 20 ug/ml adenosine deaminase (ADA) for 15 minutes at room temperature to degrade endogenous adenosine.
Use 25 μg/well wheat germ agglutinin-coated yttrium silicate SPA beads.
Mix ADA-treated membranes and SPA beads together for 30 min prior to assay.
To the Perkin-Elmer Optiplate-384 containing the compound titration add 20 μL of 2.5× solution of the Tritiated compound and 30 μL of the membrane-bead mixture. Incubate for one hour at room temperature with agitation.
Include total binding (assay buffer+1% DMSO) and non-specific binding (CGS15943, 1 μM) wells.
Allow the beads to settle for one hour.
A curve fitting program (i.e., Prism, Activity Base, Chemcart) is used to determine the EC50. The Ki value is calculated using the Cheng-Prusoff equation. Ki=EC50/(1+(radioligand concentration/Kd)) Counting and Calculations
Counting and calculations were performed as described within the “A2A Activity Binding of Compounds of the Invention” section. Using the foregoing methods, the following results were obtained using compounds of the invention described herein. Each example compound tested is reported in the following format: Example number: A2A Ki (nM) selectivity.
(In a scintillation proximity assay essentially only radioactivity close to the scintillant gives light.)
Turning to `COc1cccc2c1nc(N)n1nc(C3CNCC(F)(F)C3)nc21` (single isomer, unassigned) [Example 33B, 2-(5,5-difluoropiperidin-3-1-yl)-7-methoxy-[1,2,4]triazolo[1,5-c]quinazolin-5-amine], the pKi was 8.62.

As for `COc1cccc2c1nc(N)n1nc(C3CN(CC(F)F)CC(F)(F)C3)nc21` (single isomer, unassigned) [Example 34A, 2-(1-(2,2-difluoroethyl)-5,5-difluoropiperidin-3-yl)-7-methoxy-[1,2,4]triazolo[1,5-c]quinazolin-5-amine], the pKi is 8.96.

As for `COc1cccc2c1nc(N)n1nc([C@@H]3CCCN(CC4CCCC4)C3)nc21` [Example 47, 2-((3R)-1-(cyclopentylmethyl)piperidin-3-yl)-7-methoxy[1,2,4]triazolo [1,5-c]quinazolin-5-amine], the pKi was 8.01.

Consider `COc1cccc2c1nc(N)n1nc([C@@H]3CCCN(CC(F)F)C3)nc21` [Example 3, (R)-2-(1-(2,2-difluoroethyl)piperidin-3-yl)-7-methoxy-[1,2,4]triazolo[1,5-c]quinazolin-5-amine], for which the pKi is 9.40.

`COc1cccc2c1nc(N)n1nc([C@@H]3CCCN(C(=O)C(C)(C)F)C3)nc21` [Example 42, (R)-1-(3-(5-amino-7-methoxy-[1,2,4]triazolo[1,5-c]quinazolin-2-yl)piperidin-1-yl)-2-fluoro-2-methylpropan-1-one]: the pKi was 8.96.

The molecule `COc1cccc2c1nc(N)n1nc([C@@H]3CCCN(CCN(C)C)C3)nc21` [Example 4, (R)-2-(1-(2-(dimethylamino)ethyl)piperidin-3-yl)-7-methoxy-[1,2,4]triazolo[1,5-c]quinazolin-5-amine] showed a pKi of 8.27.

For the molecule `COc1cccc2c1nc(N)n1nc([C@@H]3CCCN(CC4(C)CC4)C3)nc21` [Example 10, (R)-7-methoxy-2-(1-((1-methylcyclopropyl)methyl)piperidin-3-yl)-[1,2,4]triazolo[1,5-c]quinazolin-5-amine], the pKi is 7.70.

`COc1cccc2c1nc(N)n1nc([C@@H]3CCCN(CC(C)(C)F)C3)nc21` [Example 43, (R)-2-(1-(2-fluoro-2-methylpropyl)piperidin-3-yl)-7-methoxy-[1,2,4]triazolo[1,5-c]triazolo[1,5-c]quinazolin-5-amine] gave a pKi of 9.22.

Turning to `COc1cccc2c1nc(N)n1nc([C@@H]3CCCN(CCC(F)(F)F)C3)nc21` [Example 1, (R)-7-methoxy-2-(1-(3,3,3-trifluoropropyl)piperidin-3-yl)-[1,2,4]triazolo[1,5-d]quinazolin-5-amine], the pKi is 9.22.

In turn, `COc1cccc2c1nc(N)n1nc([C@@H]3CCCN(C4CC4)C3)nc21` [Example 52, (R)-2-(1-cyclopropylpiperidin-3-yl)-7-methoxy-[1,2,4]triazolo[1,5-c]quinazolin-5-amine] showed a pKi of 8.92.

In the case of `Nc1nc2cc(Cl)ccc2c2nc([C@@H]3CCCN(CC(F)F)C3)nn12` [Example 26, (R)-8-chloro-2-(1-(2,2-difluoroethyl)piperidin-3-yl)-[1,2,4]triazolo[1,5-c]quinazolin-5-amine], the negative logarithm of the Ki (pKi) is 8.89.

On to `COc1cccc2c1nc(N)n1nc(C3CC4CCC3N(CC(F)(F)F)C4)nc21` (single isomer, unassigned) [Example 35A, 7-methoxy-2-(2-(2,2,2-trifluoroethyl)-2-azabicyclo[2.2.2]octan-6-yl)-[1,2,4]triazolo[1,5-c]quinazolin-5-amine], for which the pKi is 7.68.

The molecule `COc1cccc2c1nc(N)n1nc(C3CCCC(N)C3)nc21` (single isomer, unassigned) [Example 30C, 2-(3-aminocyclohexyl)-7-methoxy-[1,2,4]triazolo[1,5-c]quinazolin-5-amine] gave a pKi of 6.94.

The molecule `COc1cccc2c1nc(N)n1nc([C@H]3CN(C4CCC(F)(F)CC4)CCO3)nc21` [Example 54, (R)-2-(4-(4,4-difluorocyclohexyl)morpholin-2-yl)-7-methoxy-[1,2,4]triazolo[15-c]quinazolin-5-amine] gave a pKi of 8.52.

Regarding `COc1cccc2c1nc(N)n1nc([C@@H]3CCCN(CC4CC(F)(F)C4)C3)nc21` [Example 17, (R)-2-(1-((3,3-difluorocyclobutyl)methyl)piperidin-3-yl)-7-methoxy-[1,2,4]triazolo[1,5-c]quinazolin-5-amine], the pKi was 9.15.

Regarding `COc1cccc2c1nc(N)n1nc([C@@H]3CCN(CC(F)(F)F)C3)nc21` [Example 53, (R)-7-methoxy-2-(1-(2,2,2-trifluoroethyl)pyrrolidin-3-yl)-[1,2,4]triazolo[1,5-c]quinazolin-5-amine], the pKi is 8.70.

With `COc1cccc2c1nc(N)n1nc([C@@H]3CCCN(CCC(F)(F)C(F)(F)F)C3)nc21` [Example 11, (R)-7-methoxy-2-(1-(3,3,4,4,4-pentafluorobutyl)piperidin-3-yl)-[1,2,4]triazolo[1,5-c]quinazolin-5-amine], the pKi was 9.40.

As for `COc1cccc2c1nc(N)n1nc([C@@H]3CCCNC3)nc21` [Example 13, (R)-7-methoxy-2-(piperidin-3-yl)-[1,2,4]triazolo[1,5-c]quinazolin-5-amine], the pKi was 7.03.

The molecule `COc1cccc2c1nc(N)n1nc(C3CCCCN(CC(F)(F)F)C3)nc21` (single isomer, unassigned) [Example 32A, 7-methoxy-2-(1-(2,22-trifluoroethyl)azepan-3-yl)-[1,2,4]triazolo[1,5-c]quinazolin-5-amine] had a pKi of 9.15.

Staying with this assay, now noted: values marked ^: 1 μg of membrane/well (HEK293 cells expressing the human A2a receptor); 0.5 nM tritiated radioligand; Cheng-Prusoff.
`Nc1nc2c(Cl)cccc2c2nc(C3CCCN(CCC(F)(F)F)C3)nn12` (racemic) [Example 27, (±)-7-chloro-2-(1-(3,3,3-trifluoropropyl)piperidin-3-yl)-[1,2,4]triazolo[1,5-c]quinazolin-5-amine]: the pKi was 8.01.

Molecule `COc1cccc2c1nc(N)n1nc([C@@H]3CCCN(C(=O)c4cccs4)C3)nc21` [Example 39, 7-methoxy-2-((3R)-1-(thiophen-2-ylcarbonyl)piperidin-3-yl)[1,2,4]triazolo[1,5-c]quinazolin-5-amine] showed a pKi of 8.57.

Regarding `COc1cccc(C(=O)N2CCC[C@@H](c3nc4c5cccc(OC)c5nc(N)n4n3)C2)c1` [Example 41, 7-methoxy-2-((3R)-1-((3-methoxyphenyl)carbonyl)piperidin-3-yl)[1,2,4]triazolo[1,5-c]quinazolin-5-amine], the pKi was 8.72.

Molecule `COc1cccc2c1nc(N)n1nc([C@@H]3CCCN(CC(C)C)C3)nc21` [Example 8, (R)-2-(1-isobutylpiperidin-3-yl)-7-methoxy-[1,2,4]triazolo[1,5-c]quinazolin-5-amine] gave a pKi of 7.35.

`COc1cccc2c1nc(N)n1nc([C@@H]3CCCN(S(=O)(=O)c4ccccc4)C3)nc21` [Example 36, (R)-7-methoxy-2-(1-(phenylsulfonyl)piperidin-3-yl)-[1,2,4]triazolo[1,5-c]quinazolin-5-amine]: the pKi is 8.92.

Regarding `COc1cccc2c1nc(N)n1nc([C@@H]3CCCN(Cc4cnc(C)s4)C3)nc21` [Example 48, 7-methoxy-2-((3R)-1-((2-methyl-1,3-thiazol-5-yl)methyl)piperidin-3-yl)[1,2,4]triazolo[1,5-c]quinazolin-5-amine], the pKi is 8.68.

The term pKi denotes the negative decadic logarithm of the Ki, by convention in mol/L. Read a low pKi as a large Ki.
